EC50 data for 68 molecules are collected here from PubChem BioAssay AID1902 (Broad Institute, 2009).

Activity calls are given as the source filed them.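 Rule for the calls: active = EC50 no more than a set limit of log units above the highest dose; inactive = the rest.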 A value given as a limit tells only on which side of the number the result lay.

The target of this assay is S. pyogenes SKKanGAS, kanamycin survival, BacTiterGlo, 6 h. In words: SKKanGAS survival reduction under kanamycin, dose response, streptokinase promoter inhibitor project, SKKanGAS strain, luminescence, dose confirmation (AID 1902).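 Note: lower survival reflects blocked streptokinase promoter driving kanamycin resistance gene.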
As to `CCOC(=O)c1sc(NC(=O)Nc2cccc(Cl)c2)cc1C`, the EC50 was 2.39 µM.

For the molecule `COc1cc(C(=O)NNC(=S)NC(=O)c2ccccc2C)cc(OC)c1OC`, the concentration giving a half-maximal response (EC50) is 1.88 µM. The value for `O=C(CSc1ccccn1)Nc1nonc1[N+](=O)[O-]` was 7.31 µM; that for `Cc1ccccc1-c1nc2c3ccccc3nc(=S)n2[nH]1` was 4.01 µM; that for `Cc1ccc(C)c(-c2nnc(NC(=O)COc3ccccc3)o2)c1` was 1.7 µM. As for `CCN1/C(=C/C=C/c2oc3ccc(-c4ccccc4)cc3[n+]2CC)Oc2ccc(-c3ccccc3)cc21`, the figure is 2.07 µM; as for `O=C(Nc1nnc(-c2ccc(Br)cc2)o1)c1ccco1`, 1.2 µM. As for `CC(=O)OCC1=C(C(=O)O)N2C(=O)C(NC(=O)C(C)Cn3nc(C)c(Cl)c3C)C2SC1` (stereo not drawn), the figure is 2.95 µM. In the case of `COc1ccc2c(c1)c(CC(=O)NCc1cc([N+](=O)[O-])ccc1O)c(C)n2C(=O)c1ccc(Cl)cc1`, the 50% effective concentration (EC50) was 9.89 µM. As for `Cc1cccc(CCNC(=O)CC2C(=O)NCCN2Cc2ccccc2C)n1` (stereo not drawn), the figure is > 15 µM (inactive); as for `O=S(=O)(Nc1ccc(N=Nc2ccc(O)c3ccccc23)cc1)c1ccccc1`, 7.08 µM; as for `Cc1cc(C)n(-c2nc(SCC(=O)O)c3c4c(sc3n2)CCCC4)n1`, 5.93 µM. As for `COc1ccc(/C=N/n2c(-c3cccs3)n[nH]c2=S)cc1`, the figure is 14.3 µM. As for `COc1cccc(-c2cc(C(F)(F)F)nc(N3CCC(C)CC3)n2)c1`, the figure is 7.06 µM. Turning to `CCN(CC)c1nc(C(F)(F)F)nc2c1nnn2Cc1ccccc1`, the EC50 was 3.62 µM. The value for `COC(=O)c1ccc(/C=C/c2ccc3cccc(OC(C)=O)c3n2)cc1` was 1.18 µM; that for `CCCCC(=O)NC(=S)NNC(=O)CCc1ccccc1` was 5 µM; that for `COc1ccc(OCC(=O)NNC(=S)NC(=O)C2CC2)cc1` was 4.11 µM. The value for `Cc1ccc(O)c(C(=O)CC(=O)c2ccccc2Cl)c1` was 3.52 µM; that for `CC(=O)c1c(C)[nH]c(C(=O)Nc2nc(-c3ccc(-c4ccccc4)cc3)cs2)c1C` was 4.14 µM. With `COCC1=C(C(=O)OC(C)OC(=O)OC(C)C)N2C(=O)[C@@H](NC(=O)/C(=N\OC)c3csc(N)n3)[C@H]2SC1` (stereo partly drawn), the EC50 was 0.797 µM. Regarding `Fc1cc(F)c(C2SCCN2C(=S)Nc2cccc(C(F)(F)F)c2)c(F)c1` (stereo not drawn), the EC50 is 8.26 µM.

For the molecule `CCCn1c(NC(=O)c2ccc(Cl)c(S(=O)(=O)N3CCCC3)c2)nc2ccccc21`, the EC50 was 1.67 µM. The value for `CCCc1ccc(-c2cc(N)n[nH]2)cc1` was 4.89 µM; that for `O=C(Nc1ccccc1)c1nnsc1S(=O)c1ccc(Cl)cc1` (stereo not drawn) was 1.34 µM; that for `Cc1ccccc1-n1cnc2cc(NCc3cccs3)ccc21` was 4.69 µM. As for `O=C(O)c1ccc(N/N=C/c2ccc(OC(=O)c3ccccc3Cl)cc2)cc1`, the figure is 5.02 µM.

`CN(Cc1ccc(N(C)C)cc1)C(=O)c1cc2ccccc2o1`: the EC50 is > 15 µM (inactive).

On to `O=c1c2ccccc2[se]n1-c1ccccc1`, for which the EC50 was 1.52 µM.

`CCC(C)(C)c1ccc(OCCCC[n+]2cccc(C)c2)c(C(C)(C)CC)c1`: the EC50 is 7.73 µM. The value for `Cc1cc(C(=O)N/N=C/c2cc(Br)cc([N+](=O)[O-])c2O)c2ccccc2n1` was 0.893 µM. The value for `C[N+](C)(C)c1ccc(/C=N/Nc2nc(Cl)c(C#N)c(Cl)c2Cl)cc1` was > 15 µM (inactive); that for `O=C(Nc1nnc(C2COc3ccccc3O2)o1)c1ccc(F)cc1` (stereo not drawn) was 1.47 µM; that for `COc1ccc(C(=O)c2ccc(N3CCN(C4CC(=O)NC4=O)CC3)cc2)cc1F` (stereo not drawn) was 2.76 µM. `NS(=O)(=O)c1ccc(-c2ccc(/C=C3\SC(=S)N(C4CCS(=O)(=O)C4)C3=O)o2)cc1` (stereo not drawn): the EC50 is 4.95 µM.

Consider `COc1ccccc1Oc1cn[nH]c1-c1ccc(OCC(=O)NN)cc1O`, for which the EC50 is > 15 µM (inactive). For `COc1ccccc1CCNC(=O)C(=O)c1cn(CC(=O)N2CCCC2)c2ccccc12`, the EC50 is > 15 µM (inactive).

In the case of `CN1CCN(C2Cc3ccc(Cl)cc3Sc3ccc(F)cc32)CC1` (stereo not drawn), the EC50 is 6.47 µM.

As for `CC1(C)S[C@@H]2[C@H](NC(=O)C(NC(=O)N3CCNC3=O)c3ccccc3)C(=O)N2[C@H]1C(=O)O` (stereo partly drawn), the EC50 was below 0.06 µM. As for `COc1ccc2cc(C(=O)/C=C/c3cc(OC)c(O)c(OC)c3)ccc2c1`, the figure is 6.68 µM; as for `Clc1ccc(-c2cc3ccccc3nc2N2CCCC2)cc1`, 5.14 µM; as for `Cc1ccccc1N1CCN(S(=O)(=O)c2nnc(NC(=O)c3ccco3)s2)CC1`, 4.46 µM. As for `CC1(C(=O)OCC(=O)Nc2nc(-c3ccc(F)c(F)c3)cs2)CC1(Cl)Cl` (stereo not drawn), the figure is 6.72 µM; as for `CCCCCCCCOC(=O)/C=C/c1c(C)[nH]c(=O)[nH]c1=O`, 0.788 µM; as for `CCC(C(=O)NCCCN1CCCC1=O)n1c2ccccc2c2nc(=O)cc(C)n21` (stereo not drawn), > 15 µM (inactive). The value for `O=C(COc1cccc(Oc2ccccc2)c1)Nc1ccc(SC(F)F)cc1` was 13 µM. With `CCCCNc1c(-c2ccc(OC)c(SC3CCCCC3)c2)nc2cc(C)ccn12`, the EC50 is 3.89 µM. The value for `CCCOc1ccc(-c2nc(OC)c3ccccc3n2)cc1` was > 15 µM (inactive). The value for `Cc1ccc(CN2CN(S(=O)(=O)c3cccs3)c3nc4ccccc4nc32)cc1` was 7.74 µM; that for `CCc1cc(C(=O)N2CCCC(CCC(=O)NCc3cccc(OC)c3)C2)no1` (stereo not drawn) was > 15 µM (inactive); that for `Cc1ccc(-c2cc3nc(-c4ccc(Br)cc4)cc(N)n3n2)cc1` was 0.561 µM. The value for `CCc1ccc(S(=O)(=O)/N=C2\C=C(Nc3cccc(C(=O)O)c3)C(=O)c3ccccc32)cc1` was 1.71 µM; that for `O=C(N/N=C/c1ccccc1O)c1cccc2ccccc12` was 3.08 µM; that for `CCN(c1ccccc1)S(=O)(=O)c1ccc(C(=O)Nc2nnc(CSC)o2)cc1` was 3.7 µM. With `O=C(c1cc2ccccc2cc1O)N1CCN(c2ccccc2O)CC1`, the EC50 was 9.87 µM. The value for `CC(=O)NC[C@H]1CN(c2ccc(N3CCOCC3)c(F)c2)C(=O)O1` was 0.158 µM.

`COc1cccc(C2C3=C(N=c4s/c(=C\c5cccc(O)c5)c(=O)n42)c2ccccc2CC3)c1OC` (stereo not drawn): the EC50 is 5.37 µM. The value for `Oc1ccc(Cl)cc1C1=NNC(c2ccc(Cl)cc2)C1` (stereo not drawn) was 1.1 µM. The value for `Cc1[nH]n(-c2ccccc2)c(=O)c1N=Nc1ccccc1O` was 0.582 µM. Turning to `CC(C)=CCCC1(C)C=Cc2c(ccc3c2[nH]c2cc(O)c(C)cc23)O1` (stereo not drawn), the EC50 is 3.04 µM. As for `CCC(C)c1ccc(C(C)NC(=S)NC2CCCCC2)cc1` (stereo not drawn), the figure is 9.12 µM; as for `C/C(=N\NC(=O)c1cccc2ccccc12)c1ccccn1`, 3.26 µM. Turning to `CCCCNc1c(-c2ccc(-c3ccc(C(C)=O)cc3)c(OC)c2)nc2cnccn12`, the EC50 was 5.58 µM. Consider `O=C1c2ccccc2C(=O)c2[nH]c(=O)[nH]c21`, for which the EC50 is 9.21 µM. The value for `CC(C)=CCc1c(-c2ccc(O)cc2O)oc2c3c(cc(O)c2c1=O)OC(C)(C)C=C3` was 1.23 µM. As for `CCC/C=C(\CCC)C(NS(=O)(=O)c1ccc(C(F)(F)F)cc1)c1ccccc1` (stereo not drawn), the figure is 3.48 µM; as for `CCCn1nnnc1NC(=O)c1ccc2ccccc2c1`, 1.01 µM; as for `O=C(Nc1cccc(Cl)c1N1CCCC1)c1cc2ccccc2o1`, 4.81 µM.

Usually EC50 stands for the concentration that produces a half-maximal response.
